We go through 2 compounds from patent publication US20060040919A1, “Bronchorelaxing compounds” (priority 2004, published 2006).

Series [1] concerns human bronchus preparation. Put plainly: Bronchorelaxation test: LTD4-induced contraction of human bronchus preparation. To be noted: 10 μM capsazepine, 1 h exposure, then 10 nM LTD4; compared with control LTD4 contraction; exemplary test of FIG. 7. The protocol: Dissection and mounting of lung tissue preparations. Lung tissue was obtained from patients undergoing lobectomia or pulmectomia due to lung carcinoma. The tissue was placed in a dissection chamber continuously perfused with 10 ml min^−1 of a physiological saline solution (PSS) at room temperature. An airway was identified in the cut part of the lobe, and a bronchus of 10-20 mm length and 1-2 mm diameter was obtained. The bronchus was cut into rings of a width of about 2-3 mm. Each bronchial ring was cleaved to obtain an about rectangular oblong preparation, one end of which was tied to a small steel hook connected to a force transducer, while the other end of the preparation was attached to a fixed hook. This is followed by a period of adjustment, as described below. The preparation was mounted in an atmosphere containing […] and 6% of CO2.
Experimental chamber. The experimental chamber has a volume of 5 ml. It is perfused with PSS at a rate of 3 ml min^−1. Two preparations are mounted in the chamber, and measurements on them are performed in parallel. For mechanical tensioning each force transducer (AME 801, SensoNor A/S, Horten, Norway) is connected to a micrometer screw. The substances to be tested, the reference substance (capsazepine), and transmitter (LTD4) are injected upstream of the preparation(s).
Materials. […]

Turning to `Oc1c(O)c(Cl)c2c(c1Cl)CCN(C(=S)NCCc1ccc(Cl)cc1)C2` [Res-4-95, 5,8-Dichloro-N-[2-(4-chlorophenyl)ethyl]-6,7-dihydroxy-3,4-dihydroisoquinoline-2(1H)-carbothioamide], the melting point lay within 83 to 86 °C.

Turning to `Oc1cc2c(cc1O)CN(C(=S)NCCc1ccc(Cl)cc1)CCC2` [capsazepine], in series [1], the “remaining contraction (test force) relative to that caused by the control force” value is reported as “about 55%”.
